Test results published in US5143918A, “Halomacrolides and derivatives having immunosuppressive activity” (Merck & Co., Inc., priority 1991, dated 1992).
Like-named read-outs stand apart in the source and are kept apart here.

Legend:
T lymphocytes (T-cells) = assay: T-Cell Proliferation Assay (tritiated thymidine uptake); type: cell-based, C57B1/6 mice; settings: mouse spleen T lymphocytes, ionomycin 250 ng/ml and PMA 10 ng/ml, 44 h culture + 4 h tritiated thymidine, read-out: IC50 (concentration of compound required to inhibit tritiated thymidine uptake / proliferation of T-cells by 50%)
Protocol: T-Cell Proliferation Assay
The compounds to be assayed were dissolved in absolute ethanol at 1 mg/ml.
Spleens from C57B1/6 mice were taken under sterile conditions and gently dissociated in ice-cold RPMI 1640 culture medium (GIBC), Grand Island, N.Y.) supplemented with 10% heat-inactivated fetal calf serum (GIBO)). Cells were pelleted by centrifugation at 1500 rpm for 8 minutes. Contaminating red cells were removed by treating the pellet with ammonium chloride lysing buffer (GIBO)) for 2 minutes at 4° C. Cold medium was added and cells were again centrifuged at 1500 rpm for 8 minutes. T lymphocytes were then isolated by separation of the cell suspension on nylon wool columns as follows: Nylon wool columns were prepared by packing approximately 4 grams of washed and dried nylon wool into 20 ml plastic syringes. The columns were sterilized by autoclaving at […]. for 30 minutes. Nylon wool columns were wetted with warm (37° C.) culture medium and rinsed with the same medium. Washed spleen cells resuspened in warm medium were slowly applied to the nylon wool. The columns were then incubated in an upright position at 37° C. for 1 hour. Non-adherent T lymphocytes were eluted from the columns with warm culture medium and the cell suspensions were spun as above.
Purified T lymphocytes were resuspended at 2.5×10^5 cells/ml in complete culture medium composed of RPMI 1640 medium with 10% heat-inactivated fetal calf serum, […], 1 mM sodium pyruvate, 2×10^-5 M 2-mercaptoethanol and 50 μg/ml gentamycin. Ionomycin was added at 250 ng/ml and PMA at 10 ng/ml. The cell suspension was immediately distributed into 96 well flat-bottom microculture plates (Costar) at 200 μl/well. The various dilutions of the compound to be tested were then added in triplicate wells at 20 ul/well. The compound 17-allyl-1,14-dihydroxy-12-[2'-(4"-hydroxy-3"-methoxycyclohexyl)-1'-methylvinyl]-23,25-dimethoxy-13,19,21,27-tetramethyl-11,28-dioxa-4-azatricyclo[22.3.1.0^4,9 ]octacos-18-ene-2,3,10,16-tetraone was used as a standard. The culture plates were then incubated at 37° C. in a humidified atmosphere of 5% CO2 -95% air for 44 hours. The proliferation of T lymphocytes was assessed by measurement of tritiated thymidine incorporation. After 44 hours of culturing, the cells were pulse-labelled with 2 μCi/well of tritiated thymidine (NEN, Cambridge, Mass.). After another 4 hours of incubation, cultures were harvested on glass fiber filters using a multiple sample harvester. Radio activity of filter discs corresponding to individual wells was measured by standard liquid scintillation counting methods (Betacounter). Mean counts per minute of replicate wells were calculated and the results expressed as concentration of compound required to inhibit tritiated thymidine uptake of T-cells by 50%.
A selection of compounds were tested according to the previous procedure. The concentration of compound required to inhibit the proliferation of T-cells by 50% was measured, and the results were as follows: […]

in vitro immune systems = settings: versus cyclosporin; J. Antibiotics 1987, 40, 1256; cited from earlier work

Row | Compound | IC50 (T lymphocytes (T-cells); T-cell) [nM] | other results
1 | 17-Ethyl-1-hydroxy-12-[2'-(3"-chloro-4"-hydroxycyclohexyl)-1'-methylvinyl]- 23,25-dimethoxy-13,19,21,27-tetramethyl-11,28-dioxa-4-azatricyclo[22.3.1.0^4,9 ]octacos-18-ene-2,3,10,16-tetraone [Example 87] | – | IC50 (T lymphocytes (T-cells)): < 1000 nM
2 | CCC1C=C(C)CC(C)CC(OC)C2OC(O)(C(=O)C(=O)N3CCCCC3C(=O)OC(C(C)=CC3CCC(Cl)C(OC)C3)C(C)CCC1=O)C(C)CC2OC (stereo not drawn) [Example 40, 17-Ethyl-1-hydroxy-12-[2'-(4"-beta-chloro-3"-methoxycyclohexyl)-1'-methylvinyl]-23,25-dimethoxy-13,19,21,27-tetramethyl-11,28-dioxa-4-azatricyclo-[22.3.1.0^4,9]octacos-18-ene-2,3,10,16-tetraone] | < 1000 | –
3 | CCC1C=C(C)CC(C)CC(OC)C2OC(O)(C(=O)C(=O)N3CCCCC3C(=O)OC(C(C)=CC3CCC(Cl)C(OC)C3)C(C)C(O)CC1=O)C(C)CC2OC (stereo not drawn) [Example 53, 17-Ethyl-1,14-dihydroxy-12-[2'-(4"-beta-chloro-3"-methoxycyclohexyl)-1'-methylvinyl]-23,25-dimethoxy-13,19,21,27-tetramethyl-11,28-dioxa-4-azatricyclo[22.3.1.0^4,9]octacos-18-ene-2,3,10,16-tetraone] | < 1000 | –
4 | CCC1C=C(C)CC(C)CC(OC)C2OC(O)(C(=O)C(=O)N3CCCCC3C(=O)OC(C(C)=CC3CCC(Br)C(OC)C3)C(C)C(O)CC1=O)C(C)CC2OC (stereo not drawn) [Example 56, 17-Ethyl-1,14-dihydroxy-12-[2'-(4"-beta-bromo-3"-methoxycyclohexyl)-1'-methylvinyl]-23,25-dimethoxy-13,19,21,27-tetramethyl-11,28-dioxa-4-azatricyclo[22.3.1.0^4,9]octacos-18-ene-2,3,10,16-tetraone] | < 1000 | –
5 | CCC1C=C(C)CC(C)CC(OC)C2OC(O)(C(=O)C(=O)N3CCCCC3C(=O)OC(C(C)=CC3CCC(I)C(OC)C3)C(C)C(O)CC1=O)C(C)CC2OC (stereo not drawn) [Example 59, 17-Ethyl-1,14-dihydroxy-12-[2'-(4"-beta-iodo-3"-methoxycyclohexyl)-1'-methylvinyl]-23,25-dimethoxy-13,19,21,27-tetramethyl-11,28-dioxa-4-azatricyclo-[22.3.1.0^4,9]octacos-18-ene-2,3,10,16-tetraone] | – | IC50 (T lymphocytes (T-cells)): < 1000 nM
6 | CCC1C=C(C)CC(C)CC(OC)C2OC(O)(C(=O)C(=O)N3CCCCC3C(=O)OC(C(C)=CC3CCC(F)C(OC)C3)C(C)C(O)CC1=O)C(C)CC2OC (centres unmarked) [Example 62, 17-Ethyl-1,14-dihydroxy-12-[2'-(4"-fluoro-3"-methoxycyclohexyl)-1'-methylvinyl]-23,25-dimethoxy-13,19,21,27-tetramethyl-11,28-dioxa-4-azatricyclo-[22.3.1.0^4,9]octacos-18-ene-2,3,10,16-tetraone] | < 1000 | –
7 | CCC1C=C(C)CC(C)CC(OC)C2OC(O)(C(=O)C(=O)N3CCCCC3C(=O)OC(C(C)=CC3CCC(O)C(Br)C3)C(C)CCC1=O)C(C)CC2OC (centres unmarked) [Example 89, 17-Ethyl-1-hydroxy-12-[2'-(3"-bromo-4"-hydroxycyclohexyl)-1'-methylvinyl]-23,25-dimethoxy-13,19,21,27-tetramethyl-11,28-dioxa-4-azatricyclo[22.3.1.0^4,9]octacos-18-ene-2,3,10,16-tetraone] | < 1000 | –
8 | C=CCC1C=C(C)CC(C)CC(OC)C2OC(O)(C(=O)C(=O)N3CCCCC3C(=O)OC(C(C)=CC3CCC(O)C(OC)C3)C(C)C(O)CC1=O)C(C)CC2OC (centres unmarked) [FR-900506, 17-allyl-1,14-dihydroxy-12-[2'-(4"-hydroxy-3"-methoxycyclohexyl)-1'-methylvinyl]-23,25-dimethoxy-13,19,21,27-tetramethyl-11,28-dioxa-4-azatricyclo-[22.3.1.0^4,9]octacos-18-ene-2,3,10,16-tetraone] | – | times more effective than cyclosporin in the suppression of in vitro immune systems (in vitro immune systems): 100 times
